Measured values published in patent US11866720B2, “Transgenic or non-transgenic plants with mutated protoporphyrinogen oxidase having increased tolerance to herbicides” (priority 2013, dated 2024).
Positions count from the first letter of the chain named.

Experiments:
Assay in all cases: biochemical
[1] = target: T1, recombinant wildtype and mutated PPO (Amaranthus PPO2: PPX2L_WC SEQ ID NO 2, PPX2L_AC SEQ ID NO 4, dG210 SEQ ID NO 6 & 8) (Amaranthus tuberculatus, UniProt Q0NZW9, R128A/F420M, form not given)
T1 sequence (Q0NZW9 1-534 R128A/F420M): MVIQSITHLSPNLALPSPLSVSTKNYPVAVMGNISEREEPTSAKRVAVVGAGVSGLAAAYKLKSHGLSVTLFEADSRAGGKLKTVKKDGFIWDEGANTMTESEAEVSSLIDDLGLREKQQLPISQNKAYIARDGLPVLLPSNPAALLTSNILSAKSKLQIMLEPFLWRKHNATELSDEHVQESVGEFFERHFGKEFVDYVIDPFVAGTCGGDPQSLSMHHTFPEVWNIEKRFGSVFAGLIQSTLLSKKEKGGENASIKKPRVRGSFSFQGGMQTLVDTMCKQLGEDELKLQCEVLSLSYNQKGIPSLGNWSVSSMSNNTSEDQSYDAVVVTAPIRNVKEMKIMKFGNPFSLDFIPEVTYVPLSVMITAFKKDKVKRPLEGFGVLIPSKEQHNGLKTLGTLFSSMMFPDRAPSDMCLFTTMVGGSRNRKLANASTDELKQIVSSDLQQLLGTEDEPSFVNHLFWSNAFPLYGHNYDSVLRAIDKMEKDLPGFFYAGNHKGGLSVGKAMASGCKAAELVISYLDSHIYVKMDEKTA

[2] = target: recombinant wildtype and mutated PPO (Amaranthus PPO2: PPX2L_WC SEQ ID NO 2, PPX2L_AC SEQ ID NO 4, dG210 SEQ ID NO 6 & 8) (Amaranthus tuberculatus, UniProt Q0NZW9, D133A/F420M/R128G); conditions: IC50 (M)
[3] = target: recombinant wildtype and mutated PPO (Amaranthus PPO2: PPX2L_WC SEQ ID NO 2, PPX2L_AC SEQ ID NO 4, dG210 SEQ ID NO 6 & 8) (Amaranthus tuberculatus, UniProt Q0NZW9, D133A/F420V/R128H); conditions: IC50 (M)
[4] = target: T2, recombinant wildtype and mutated PPO (Amaranthus PPO2: PPX2L_WC SEQ ID NO 2, PPX2L_AC SEQ ID NO 4, dG210 SEQ ID NO 6 & 8) (Amaranthus tuberculatus, UniProt Q0NZW9, D133A/F420L/R128F); conditions: IC50 (M)
T2 sequence (Q0NZW9 1-534 R128F/D133A/F420L): T1 sequence (Q0NZW9 1-534 R128A/F420M) with A128F, D133A, M420L

[5] = target: T3, recombinant wildtype and mutated PPO (Amaranthus PPO2: PPX2L_WC SEQ ID NO 2, PPX2L_AC SEQ ID NO 4, dG210 SEQ ID NO 6 & 8) (Amaranthus tuberculatus, UniProt Q0NZW9, D133A/F420I/R128I); conditions: IC50 (M)
T3 sequence (Q0NZW9 1-534 R128I/D133A/F420I): T1 sequence (Q0NZW9 1-534 R128A/F420M) with A128I, D133A, M420I

[6] = target: recombinant wildtype and mutated PPO (Amaranthus PPO2: PPX2L_WC SEQ ID NO 2, PPX2L_AC SEQ ID NO 4, dG210 SEQ ID NO 6 & 8) (Amaranthus tuberculatus, UniProt Q0NZW9, D133A/F420I/R128H); conditions: IC50 (M)
Sequence of recombinant wildtype and mutated PPO (Amaranthus PPO2: PPX2L_WC SEQ ID NO 2, PPX2L_AC SEQ ID NO 4, dG210 SEQ ID NO 6 & 8) (Amaranthus tuberculatus, UniProt Q0NZW9, D133A/F420I/R128H) (Q0NZW9 1-534 R128H/D133A/F420I): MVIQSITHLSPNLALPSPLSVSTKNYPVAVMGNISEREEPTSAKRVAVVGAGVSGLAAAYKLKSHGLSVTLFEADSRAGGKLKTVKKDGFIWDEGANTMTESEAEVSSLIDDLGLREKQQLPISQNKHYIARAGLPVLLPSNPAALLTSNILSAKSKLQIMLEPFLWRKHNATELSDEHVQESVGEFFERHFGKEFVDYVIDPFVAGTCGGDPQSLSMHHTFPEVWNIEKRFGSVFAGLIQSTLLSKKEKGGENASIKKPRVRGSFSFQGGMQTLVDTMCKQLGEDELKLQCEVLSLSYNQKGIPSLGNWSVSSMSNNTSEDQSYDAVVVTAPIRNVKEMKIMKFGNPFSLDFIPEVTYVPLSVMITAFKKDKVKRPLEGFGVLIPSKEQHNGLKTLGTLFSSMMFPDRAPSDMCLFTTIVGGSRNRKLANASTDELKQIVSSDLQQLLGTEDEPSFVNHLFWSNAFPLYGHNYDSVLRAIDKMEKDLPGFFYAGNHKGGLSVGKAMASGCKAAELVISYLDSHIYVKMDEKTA

Sequence of recombinant wildtype and mutated PPO (Amaranthus PPO2: PPX2L_WC SEQ ID NO 2, PPX2L_AC SEQ ID NO 4, dG210 SEQ ID NO 6 & 8) (Amaranthus tuberculatus, UniProt Q0NZW9, D133A/F420V/R128H) (Q0NZW9 1-534 R128H/D133A/F420V): as the sequence (Q0NZW9 1-534 R128H/D133A/F420I) above, with I420V counted along it
Sequence of recombinant wildtype and mutated PPO (Amaranthus PPO2: PPX2L_WC SEQ ID NO 2, PPX2L_AC SEQ ID NO 4, dG210 SEQ ID NO 6 & 8) (Amaranthus tuberculatus, UniProt Q0NZW9, D133A/F420M/R128G) (Q0NZW9 1-534 R128G/D133A/F420M): as the sequence (Q0NZW9 1-534 R128H/D133A/F420I) above, with H128G, I420M counted along it

| SMILES | IC50 [1] [nM] | IC50 [2] [M] | IC50 [3] [M] | IC50 [4] [M] | IC50 [5] [M] | IC50 [6] [M] |
| --- | --- | --- | --- | --- | --- | --- |
| C#CCN1C(=O)C(F)(F)Oc2cc(F)c(N3C(=O)C4=C(CCCC4)C3=O)cc21 | 641 |  |  |  |  |  |
| COC(Oc1ccccc1Oc1cc(-n2c(=O)cc(C(F)(F)F)n(C)c2=O)c(F)cc1Cl)C(=O)OC1CCCCC1 (stereo not drawn) |  | 5.14e-08 | 9.06e-08 | 1.18e-06 | 1.82e-06 | 1.31e-06 |
| C#CCN1C(=O)C(F)(F)Oc2cc(F)c(-n3c(=O)cc(C(F)(F)F)n(C)c3=O)cc21 | 2.56 |  |  |  |  |  |
| C#CCN1C(=O)COc2cc(F)c(N3C(=O)C4=C(CCCC4)C3=O)cc21 [Flumioxazin, flumioxazin] | 8430 |  |  |  |  |  |
| COC(=O)C(OC)Oc1ccccc1Oc1cc(-n2c(=O)cc(C(F)(F)F)n(C)c2=O)c(F)cc1Cl (stereo not drawn) |  | 4.76e-08 | 6.93e-09 | 4.84e-08 | 2.27e-08 | 7.54e-08 |
| C#CCN1C(=O)C(F)(F)Oc2cc(F)c(-n3c(=O)n(C)c(=S)n(C)c3=O)cc21 |  | 1.26e-08 | 7.63e-08 | 1.01e-06 | 1.38e-07 | 8.22e-08 |
